Data reported in PubChem BioAssay AID330 (DTP/NCI, 2004).
Several values for one entry are separate records, joined by “and”; a condition that tells them apart may be missing. Equal entries are not always repeated. Toxic doses and inconclusive results are not listed. The calls were made as follows: active = survival T/C of 150% or more; inactive = T/C below 125% in these data.

Test system: P388 leukemia ip, CD2F1 mice, survival T/C
Assay: NCI In Vivo Anticancer Drug Screen. Data for tumor model P388 Leukemia (intraperitoneal) in CD2F1 (CDF1) mice
Details: endpoint: median survival time, higher = longer survival
Procedure, shortened: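 Mice carrying the transplanted tumor received test compound or vehicle. Survival was recorded in each group, and the value is the treated-group measurement divided by that of the vehicle-treated control group.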

[1] = dose: 100.0 mg/kg/injection, schedule: Q01DX009 (ip), vehicle: saline
[2] = dose: 200.0 mg/kg/injection, schedule: Q01DX009 (ip), vehicle: saline

Measured: T/C

Nc1[nH]c(=S)[nH]c(=O)c1N=O
inactive: dose: 6.25 mg/kg/injection, schedule: Q01DX009 (ip), vehicle: saline 100 % of control and 113 % of control | dose: 12.5 mg/kg/injection, schedule: Q01DX009 (ip), vehicle: saline 98 % of control | dose: 25.0 mg/kg/injection, schedule: Q01DX009 (ip), vehicle: saline 100 % of control and 117 % of control

OC1CCCCCC2CC12 (stereo not given) (tested in a mixture with another compound)
inactive: dose: 50.0 mg/kg/injection, schedule: Q01DX009 (ip), vehicle: other 102 % of control | dose: 100.0 mg/kg/injection, schedule: Q01DX009 (ip), vehicle: other 103 % of control | dose: 200.0 mg/kg/injection, schedule: Q01DX009 (ip), vehicle: other 96 % of control

ClCCCCOC1CCCCO1 (stereo not given)
inactive: dose: 60.0 mg/kg/injection, schedule: Q01DX005 (ip), vehicle: saline with Tween-80 107 % of control | dose: 120.0 mg/kg/injection, schedule: Q01DX005 (ip), vehicle: saline with Tween-80 100 % of control | dose: 240.0 mg/kg/injection, schedule: Q01DX005 (ip), vehicle: saline with Tween-80 105 % of control

COc1ccc(C(C)N(C)C)cc1 (stereo not given)
inactive: dose: 50.0 mg/kg/injection, schedule: Q01DX001 (ip), vehicle: other 101 % of control | dose: 100.0 mg/kg/injection, schedule: Q01DX001 (ip), vehicle: other 99 % of control and 103 % of control | dose: 200.0 mg/kg/injection, schedule: Q01DX001 (ip), vehicle: other 98 % of control

CSC(=S)/C(=C/Nc1ncccn1)c1ccccc1
inactive: dose: 30.0 mg/kg/injection, schedule: Q01DX005 (ip), vehicle: Klucel (hydroxypropylcellulose) (HPC) 87 % of control | dose: 120.0 mg/kg/injection, schedule: Q01DX005 (ip), vehicle: Klucel (hydroxypropylcellulose) (HPC) 89 % of control

O=c1c2ccccc2sc2c([N+](=O)[O-])ccc(NCCCC3CCCN4CCCCC34)c12 (stereo not given)
inactive: dose: 31.9 mg/kg/injection, schedule: Q01DX005 (ip), vehicle: saline with Tween-80 100 % of control | dose: 63.8 mg/kg/injection, schedule: Q01DX005 (ip), vehicle: saline with Tween-80 102 % of control | dose: 127.5 mg/kg/injection, schedule: Q01DX005 (ip), vehicle: saline with Tween-80 110 % of control

CN(C)C(=S)SCN1CCCCC1
inactive: dose: 6.25 mg/kg/injection, schedule: Q01DX009 (ip), vehicle: saline with Tween-80 100 % of control | dose: 12.5 mg/kg/injection, schedule: Q01DX009 (ip), vehicle: saline with Tween-80 101 % of control | dose: 25.0 mg/kg/injection, schedule: Q01DX009 (ip), vehicle: saline with Tween-80 100 % of control | dose: 50.0 mg/kg/injection, schedule: Q01DX009 (ip), vehicle: saline with Tween-80 95 % of control

c1ccc(CC2NC(Cc3ccccc3)N3C(Cc4ccccc4)N23)cc1 (stereo not given)
inactive: dose: 100.0 mg/kg/injection, schedule: Q04DX003 (ip), vehicle: Klucel (hydroxypropylcellulose) (HPC) 102 % of control | dose: 200.0 mg/kg/injection, schedule: Q04DX003 (ip), vehicle: Klucel (hydroxypropylcellulose) (HPC) 100 % of control | dose: 400.0 mg/kg/injection, schedule: Q04DX003 (ip), vehicle: Klucel (hydroxypropylcellulose) (HPC) 93 % of control

Brc1c(C(Br)Br)ccc2ccccc12
inactive: dose: 50.0 mg/kg/injection, schedule: Q01DX005 (ip), vehicle: Klucel (hydroxypropylcellulose) (HPC) 103 % of control | dose: 100.0 mg/kg/injection, schedule: Q01DX005 (ip), vehicle: Klucel (hydroxypropylcellulose) (HPC) 105 % of control | dose: 200.0 mg/kg/injection, schedule: Q01DX005 (ip), vehicle: Klucel (hydroxypropylcellulose) (HPC) 109 % of control

CCO/C(C)=N/NC(=O)c1n[nH]c2ccccc12
inactive: dose: 50.0 mg/kg/injection, schedule: Q01DX005 (ip), vehicle: saline with Tween-80 92 % of control | dose: 100.0 mg/kg/injection, schedule: Q01DX005 (ip), vehicle: saline with Tween-80 91 % of control | dose: 200.0 mg/kg/injection, schedule: Q01DX005 (ip), vehicle: saline with Tween-80 90 % of control

CC(=O)Nc1ccc(/C=N/Nc2ccc([N+](=O)[O-])cn2)cc1
inactive: [1] 86 % of control | [2] 90 % of control | dose: 400.0 mg/kg/injection, schedule: Q01DX009 (ip), vehicle: saline 90 % of control

Cc1nc2c([N+](=O)[O-])cc(C(=O)O)cc2[nH]1
inactive: dose: 60.0 mg/kg/injection, schedule: Q01DX005 (ip), vehicle: saline 100 % of control | dose: 120.0 mg/kg/injection, schedule: Q01DX005 (ip), vehicle: saline 97 % of control | dose: 240.0 mg/kg/injection, schedule: Q01DX005 (ip), vehicle: saline 87 % of control

Cc1ccc(C(=O)Cc2nc3nnc(N)n3nc2CC(=O)c2ccc(C)cc2)cc1
inactive: dose: 50.0 mg/kg/injection, schedule: Q01DX005 (ip), vehicle: saline 97 % of control | dose: 100.0 mg/kg/injection, schedule: Q01DX005 (ip), vehicle: saline 100 % of control | dose: 200.0 mg/kg/injection, schedule: Q01DX005 (ip), vehicle: saline 97 % of control

O=C(C[n+]1ccn(CC(OCc2ccc(Cl)cc2Cl)c2ccc(Cl)cc2Cl)c1)c1ccc(F)cc1 (stereo not given)
inactive: dose: 3.12 mg/kg/injection, schedule: Q01DX005 (ip), vehicle: saline with Tween-80 101 % of control | dose: 6.25 mg/kg/injection, schedule: Q01DX005 (ip), vehicle: saline with Tween-80 95 % of control | dose: 12.5 mg/kg/injection, schedule: Q01DX005 (ip), vehicle: saline with Tween-80 95 % of control

Cc1cc(OC(=O)c2c(-c3ccccc3)noc2C)n(-c2ccc(NC(=O)c3c(-c4ccccc4)noc3C)cc2)n1
inactive: dose: 50.0 mg/kg/injection, schedule: Q01DX009 (ip), vehicle: saline 96 % of control | [1] 100 % of control | [2] 101 % of control
